Molecules are shown by their SMILES.

We go through two compounds from patent US20050272814A1, “Medicine for prevention or treatment of diabetes” (priority 2004, published 2005).

This test deals with C57BL/KsJdb/db mice. The test can be described thus: Hypoglycemic effect of single or combined administration in db/db mice (plasma glucose on day 14). The class given is in vivo, mouse. The note with it: for Decreasing rate: plasma glucose decrease vs control group mean. On the procedure:
As test animals, C57BL/KsJdb/db mice were used, which were created in Jackson Laboratory (USA) and known as an obesity, hyperlipemia, hyperinsulinemia, and insulin-resistant model (Journal of Clinical Investigation, 85, pp 962-967, 1990). Blood was collected from the orbital venous plexus of each 7-week-old db/db mouse using a heparin-treated capillary tube, and centrifugation was performed to collect plasma. Thereafter, the plasma glucose concentration (Glucose CII-Test Wako (Wako Pure Chemical Industries, Ltd.)), the insulin concentration (Lebis Insulin Kit: for mouse-T (SHIBAYAGI)), and the triglyceride concentration (Triglyceride E-Test Wako (Wako Pure Chemical Industries, Ltd.)) were measured for classification. The classification was performed so that distribution of each measurement item is uniform for each group by block allocation based on many variables in which the plasma glucose concentration is most emphasized using the measured values of the plasma glucose concentration, the body weight, the insulin concentration, and the triglyceride concentration. […] Two hours after the administration of the medicines on the 14th day from the beginning day of the administration, blood was collected from the orbital venous plexus, and the plasma thereof was collected to measure the plasma glucose concentration. […] Each plasma glucose concentration is expressed as mean±standard deviation for 6 mice of each group. Each decreasing rate is calculated from ((mean of plasma glucose concentration of control group)−(mean of plasma glucose concentration of each group))/(mean of plasma glucose concentration of control group)×100, while each relative index is calculated from (mean of plasma glucose concentration of each group)/(mean of plasma glucose concentration of control group).

As for `CN(C)C(=N)NC(=N)N.Cl` [Metformin, 1,1-Dimethylbiguanide hydrochloride, reference compound], the Decreasing rate (300 mg/kg oral once a day for 14 days) was 3%.
Take `O=C([O-])C(Cl)(Cl)CCCCCCCCCCc1ccc(Cl)cc1.[Na+]` [sodium 2,2-dichloro-12-(4-chlorophenyl)-dodecanoate]: the Relative index (3 mg/kg oral once a day for 14 days, mean plasma glucose of group / control group) was found to be 0.89. The Plasma glucose concentration (3 mg/kg oral once a day for 14 days, plasma 2 h after dosing on day 14, mean ± SD, 6 mice) came out at 241 ± 116 mg/dL. For the setting “3 mg/kg oral once a day for 14 days”, the Decreasing rate was found to be 11%. Also, where the note is “single administration 3 mg/kg, 14 days, compared with normal db/+m mouse level (187±16)”, the “Decreasing effect for the plasma glucose concentration (in words)” value was “insufficient”.
